Assay results from patent publication US20230129485A1, “SYSTEM AND METHOD FOR DETERMINING MATERIAL PROPERTIES OF MOLECULAR SYSTEMS FROM AN AB-INITIO PARAMETERIZED FORCE-FIELD” (InterX, Inc., priority 2021, published 2023).

Legend:
[1] = Free energy of hydration by Polarizable Continuum Model (PCM); settings: absolute error vs Exp (hydration)
Experimental: (§1) Due to unavailability of free energy data for the original COSMO model, the free energies of solvation for the molecule dataset are calculated using MolPro ver. […] The comparisons to other implicit solvent models such as SMD, PCM and COSMO-RS are limited to the overlap of the molecules computed using QM-parameterized force field model. The free energies of hydration as predicted by these implicit solvent models (SMD, PCM) were received.

[2] = Free energy of hydration by Solvation Model Dielectric (SMD) implicit solvent model; settings: absolute error vs Exp (hydration)
Experimental: as §1

[3] = Free energy of hydration by COSMO-RS
Experimental: as §1

[4] = Free energy of hydration by COSMO implicit solvent model (MolPro ver. 2012); settings: absolute error vs Exp (hydration)
Experimental: as §1

[5] = Free energy of hydration predicted with the QM-parameterized force field model (ARROW FF), classical MD and PIMD simulation in a water box; settings: for water Arrow MD Error / water Arrow PIMD8 Error: Table 3; for water Arrow MD Error: absolute error of MD hydration free energy vs experiment; for water Arrow PIMD8 Error: absolute error of PIMD8 hydration free energy vs experiment; for Arrow PIMD8 Error: absolute error vs Exp (hydration)
Description: For example, the example QM-parameterized force-field molecular simulation process 400 can use Bennett Acceptance Ratio (BAR) to compute the free energy of hydration/solvation of the molecule in water or any other solvent. In some implementations, the analysis of the molecular dynamics simulations includes analysis, predication, and visualization of ensemble properties of atoms/molecules from atomic and molecular trajectories using the optimized parameters of the QM-parameterized force field model (i.e., the quantum mechanics rule-based reasoning technique) and the QM-parameterized force field model.
In some simulations of the QM-parameterized force field molecular simulation process, the molecules were placed in a water or cyclohexane box of size 32×32×32 Å3. Particle-Mesh Ewald (PME) algorithm was used to compute the electrostatic interactions. A 32×32×32 grid mesh and 5th power spline interpolation order can be used to compute the inverse PME sum. 9 Å cutoffs were used to compute the direct PME sum as well as the exchange and dispersion interactions. Bulk corrections were applied to account for distance cut-off of dispersion interactions. Solvation free energies were computed by decoupling the interactions between the solute and the solvent molecules. Electrostatic, exchange-repulsion and dispersion interactions were switched off simultaneously using a lambda-dependent scaling (a scaling factor power=2 was used) and a soft-coring algorithm (maximal soft-coring radius=1.5 Å, soft-coring radius scaling factor power=1). 15 lambda points unequally spaced (X=0, 0.05, 0.1, 0.2, 0.3, 0.4, 0.5, 0.6, 0.7, 0.75, 0.8, 0.85, 0.9, 0.95, 1.0) were used to decouple the solute-solvent intermolecular interactions.
In some simulations of the QM-parameterized force field molecular simulation process, energy minimization (10,000 steps) using the steepest descent algorithm was initially performed on all the simulation systems. This was followed by a 50 ps equilibration and 1 ns production runs in the isothermal-isobaric ensemble (NPT). […] Pressure was maintained at 1 atm using a MTTK barostat (relaxation time=5 ps). A Multiple Time Step (MTS) algorithm was used to integrate the equations of motion both for the classical and path-integral runs. […] The calculations were performed using the QM-parameterized force field model.
Using the QM-parameterized force field model, the QM-parameterized force field device can compute or predict the solvation free energies using both the Bennett acceptance ratio (BAR) and thermodynamic integration (TI) method with <dH/dλ> values interpolated by cubic splines. […] FIG. 7A illustrates a <dH/dλ> dependence for desolvation of Anthracene in water. FIG. 7B illustrates accumulated statistical errors for TI calculations of AG desolvation of Anthracene in water.

[6] = implicit solvent model, values received; cited from earlier work
[7] = implicit solvent model, values received; cited from earlier work; remark: listed apart in the source
[8] = Table 3; free energy of hydration, experimental; cited from earlier work

| SMILES | PCM Error [1] [kcal/mol] | SMD Error [2] [kcal/mol] | COSMO-RS error [3] [kcal/mol] | COSMO/Molpro Error [4] [kcal/mol] | water Arrow MD Error [5] [kcal/mol] | water Arrow PIMD8 Error [5] [kcal/mol] | Arrow PIMD8 Error [5] [kcal/mol] | PCM free energy of hydration [6] [kcal/mol] | SMD free energy of hydration [7] [kcal/mol] | estimated statistical error of computed free energy of solvation ([5]; 1 ns trajectory, TI, FIG. 7B, in water) | water Exp (hydration) [8] [kcal/mol] |
| --- | --- | --- | --- | --- | --- | --- | --- | --- | --- | --- | --- |
| CC(C)(C)O [2-Methyl-2-Propanol] | 1.51 | 0.71 | 0.10 | 1.31 | 0.85 | 0.35 | 0.35 |  |  |  |  |
| c1ccc2cc3ccccc3cc2c1 [Anthracene] | 1.05 | 1.75 | 0.17 | 1.77 | 0.32 | 0.07 | 0.07 | -2.90 | -2.20 | about 0.2 kcal/mol | -3.95 |
| c1ccc(-c2ccccc2)cc1 [Biphenyl] |  |  | 0.31 | 2.64 | 1.17 | 0.13 | 0.13 |  |  |  | -2.66 |
| C=CC=C [Buta-13-diene] | 1.91 | 0.29 | 0.47 | 3.28 | 0.31 | 0.35 | 0.35 | -1.30 | 0.90 |  | 0.61 |
| C1CCCCCC1 [Cycloheptane] |  |  |  | 1.32 | 0.67 | 0.12 | 0.12 |  |  |  | 0.79 |
| OC1CCCCC1 [Cyclohexanol] |  |  | 0.33 | 1.03 | 1.09 | 0.34 | 0.34 |  |  |  | -5.47 |
| C1CCCC1 [Cyclopentane] |  |  |  |  | 0.71 | 0.12 |  |  |  |  | 1.20 |
| CCSCC [DiEthylSulfide] | 0.57 | 1.23 |  | 3.37 | 0.89 | 0.12 | 0.12 | -2.00 | -0.20 |  | -1.43 |
| CC(=O)N(C)C [DiMethylAcetamide] |  |  | 0.37 | 2.31 |  |  |  |  |  |  |  |
| CCOCC [DiethylEther] | 0.15 | 0.55 |  | 2.00 | 0.95 | 0.10 | 0.10 | -1.90 | -1.20 |  | -1.75 |
